According to patent publication US5166200A, “Treatment of endometriosis” (Snow Brand Milk Products Company, Limited, priority 1990, dated 1992):
“Also recorded” adds a separate entry of the source. Where two headings read alike, the source gives them in different places.

What was measured:
[1] = cited from earlier work
estradiol (Ez) [2] = assay: Test (2) serum estradiol (Ez) reduction, oral administration, PMSG-treated rats, radioimmunoassay; type: in vivo, SD strain female rats; settings: 100 mg/kg, 6 hours after administration, 5 per group, control (HPC) 0.522
Description: (§1) In this Test Example, effects of administration of 6-OA and 6-enol ester compounds thereof on estradiol (Ez) reduction were examined.
The type, age, number and grouping of test animals were the same as in Test (1).
All of the rats were subcutaneously injected with PMSG, in the same manner as in Test (1), in an amount of 100 IU/body once every other day (6 times in total).
Before noon of the next day of the final (6th) administration of PMSG, 0.5 ml of a solvent, 100 mg/kg of 6-OA, 100 mg/kg of 6-OAp and 100 mg/kg of 6-OAb were orally administered to group I (control group), group II, group III and group IV, respectively.
Aftr 6 hours from the administration, the rats were subjected to exsanguination. The blood collected from each rat was subjected to serum separation, and the Ez in the serum was determined by radioimmunoassay.
The solvent used was the same as in Test (1). 6-OA, 6-OAp and 6-OAb were each suspended in the solvent in such a concentration that the administration amount of the resulting suspension per rat became 0.5 ml.

estradiol (Ez) [3] = assay: Test (1) serum estradiol (Ez) reduction, subcutaneous administration, PMSG-treated rats, radioimmunoassay; type: in vivo, SD strain female rats; settings: for Ez-reducing effect: compared with the control group, in both cases of subcutaneous administration (50 mg/kg) and oral administration (100 mg/kg, Test (2)); for Ez concentration in serum (average): subcutaneous, 50 mg/kg, 3 hours after administration, PMSG-treated rats, 5 per group, control (HPC) 0.572
Description: as §1
20 SD strain female rats of 8-week old were used as test animals. They were divided into four groups each consisting of 5 rats. To all the rats was subcutaneously injected pregnant mare serum gonatropin (PMSG) in an amount of 100 IU/body once every other day (6 times in total). In the beforenoon of the next day of the final (6th) administration of PMSG, 0.5 ml of a solvent, 50 mg/kg of 6-OA, 50 mg/kg of 6-OAp and 50 mg/kg of 6-OAb were subcutaneously administered to group I (control group), group II, group III and group IV, respectively.
After 3 hours from the administration, the rats were subjected to abdomen opening under etherization and then to exsanguination from the main vein. The blood collected from each rat was subjected to serum separation, and the Ez in the serum was determined by radioimmunoassay.
A physiological saline solution containing 0.3% of hydroxy propyl cellulose (HPC) was used as the solvent. 6-OA, 6-OAp and 6-OAb were each suspended in the solvent in such a concentration that the administration amount of the resulting suspension per rat became 0.5 ml.

[4] = test system: aromatase (a steroidogenesis enzyme); settings: known; Japanese Patent Application Laid-Open Nos. 192794/1988, 131193/1989; cited from earlier work
[5] = animal toxicity tests (LD50)
[6] = test system: experimental endometriosis; assay: effect on model rats of endometriosis (cysts in endometrium autoplanted under renal capsule); type: in vivo, SD strain female rats; settings: 100 mg/kg/day
Excerpt: In this Test example, effect of administration of 6-OAp on model rats of endometriosis was examined.
SD strain female rats of 7-week old weighing 170-210 g were used as test animals. In these rats, an endometrial segment (about 5 mm×5 mm) was removed from the left uterine horn and autoplanted under the left renal capsule, and formation of cysts in the transplanted endometrium was examined. Those rats which had developed cysts of 0.5-2.0 mm in height in the transplanted endometrium, were used for test.
The rats were divided into three groups. To group I (control group) was orally administered a physiological saline solution containing 0.3% of hydroxy propyl cellulose (HPC) daily in an amount of 0.5 ml/day. To group II was orally administered 6-OAp daily in an amount of 100 mg/kg/day. In this case, 6-OAp was suspended in a physiological saline solution containing 0.3% of HPC in such a concentration that the administration amount of the resulting suspension per rat became 0.5 ml. Group III (positive control) was subjected to ovary removal.
Each rat was subjected to abdomen opening after 3 weeks from the start of administration or after the ovary removal and examined for the presence of cysts.
Chi-square test was used for the statistical analysis of the test data obtained.

Row | SMILES | Ez concentration in serum (average) (estradiol (Ez) [2]) | Ez-reducing effect (estradiol (Ez) [3]) | Ez concentration in serum (average) (estradiol (Ez) [3]) | also measured
1 | C#C[C@]1(O)CC[C@H]2[C@@H]3CCC4=Cc5oncc5C[C@]4(C)[C@H]3CC[C@@]21C [danazol] | – | – | – | side effects ([1]; in vivo): dyshepatia, masculinization and the like
2 | C[C@]12CCC(=O)C=C1C(OC(=O)c1ccccc1)=C[C@@H]1[C@@H]2CC[C@]2(C)C(=O)CC[C@@]12O [6-OAb] | 0.422 ng/mL | strong Ez-reducing effect | 0.390 ng/mL | –
3 | CCNC(=O)[C@@H]1CCCN1C(=O)[C@H](CCCNC(=N)N)NC(=O)[C@H](CC(C)C)NC(=O)[C@@H](COC(C)(C)C)NC(=O)[C@H](Cc1ccc(O)cc1)NC(=O)[C@H](CO)NC(=O)[C@H](Cc1c[nH]c2ccccc12)NC(=O)[C@H](Cc1cnc[nH]1)NC(=O)[C@@H]1CCC(=O)N1 [buserelin] | – | – | – | side effects ([1]; treatment of endometriosis, prior art): hyposexuality, hot flushes and the like
4 | C[C@]12CCC(=O)C=C1C(=O)C[C@@H]1[C@@H]2CC[C@]2(C)C(=O)CC[C@@]12O [6-OA, 14α-Hydroxy-4-androstene-3,6,17-trione] | 0.291 ng/mL | strong Ez-reducing effect | 0.262 ng/mL | aromatase-inhibitory activity [4]: strong aromatase-inhibitory activity; toxicity ([5]; animal tests): very low toxicity; LD50 ([5]; in vivo): > 2000 mg/kg
5 | CCC(=O)OC1=C[C@@H]2[C@H](CC[C@]3(C)C(=O)CC[C@@]23O)[C@@]2(C)CCC(=O)C=C12 [6-OAp, 14α-Hydroxy-androsta-4,6-diene-3,17-dione-6-propionate] | 0.226 ng/mL | strong Ez-reducing effect; also recorded: stronger Ez-reducing effect than the 6-OA group and the 6-OAb group | 0.230 ng/mL | Disappearance (of cysts) ([6]; oral, 3 weeks, control 9%, ovary-removed 100, significant at 5% level relative to control group (Chi-square)): 41%; Cysts absent ([6]; oral, 3 weeks, total 22 rats, control 2 of 22, significant at 5% level relative to control (Chi-square)): 9 rats; Cysts present ([6]; oral, 3 weeks, total 22 rats, control 20 of 22): 13 rats; effect on experimental endometriosis of rats ([6]; orally administered daily for 3 weeks): effective
